{
  "source": "patent US7968535B2",
  "about": "“Use of azapaullones for preventing and treating pancreatic autoimmune disorders” (Develogen Atkiengesellschaft, priority 2005, dated 2011)",
  "key": {"human GSK3": {"system": "human GSK3", "assay": "IC50 Profiler Express kinase assay", "assay_type": "biochemical", "settings": "10-point curves in duplicate", "method": "Experiments were carried out by Upstate Ltd. according to the protocols described in KinaseProfiler™ Assay Protocols, IC50 Profiler Express™ (10-point curves in duplicate) Fall 2004 by Ustate Cell Signaling solutions."}, "INS-1E cells [1]": {"system": "INS-1E cells", "assay": "Ins-1E cell proliferation assay (BrdU incorporation)", "assay_type": "cell-based, rat", "method": "The proliferation rate of Ins-1E cells was determined by monitoring DNA synthesis using a 5-bromo-2′-deoxyuridine (BrdU) incorporation assay. BrdU is a halogenated nucleotide analogue of thymidine that is incorporated into DNA during the S-phase of the cell cycle. Pulse-labeling of DNA with BrdU and subsequent immunohistochemical detection of labeled nuclei was used to study the rate of cell proliferation. The treatment of INS-1E cells with 4-Azakenpaullone for 24 hours increases BrdU incorporation of Ins-1E cells in a concentration dependent manner, reaching a maximum of about 1.4 fold between 5 μM and 10 μM 4-AKP.\nThe proliferation of Ins-1E insulinoma cells was determined by monitoring DNA synthesis as an indirect parameter of cell proliferation. The incorporation of the thymidine analogue 5-bromo-2′-deoxyuridine (BrdU) during replication into cellular DNA was used to label the DNA of mitotically active cells. After its incorporation into DNA, BrdU was detected by immunoassay.\n(§1) 10,000 Ins-1E cells were seeded per 96-well (black 96-well tissue culture plates, Falcon #353948) in 100 μl culture medium (RPMI 1640 containing 11 mM glucose, 5% FCS, 10 mM HEPES, 50 μM 2-mercaptoethanol, 1 mM MEM sodium pyruvate, 100 U/ml penicillin, 100 μg/ml streptomycin) and cultivated at 37° C., 5% CO2 in humidified atmosphere for 3 days. Media was changed to 100 μl starvation medium (culture medium with only 5 mM glucose, 1% FCS) and the cells were re-incubated for 1 day. Then media was exchanged to starvation medium containing test substances and the cells were further incubated for 24 h. For the last 4 hours BrdU was added to reach a concentration of 10 μM. Cell proliferation ELISA (Cell Proliferation ELISA, BrdU, chemiluminescence, Roche, cat. No. 1669915) was performed according to the manufacturers guidelines."}, "INS-1E cells [2]": {"system": "INS-1E cells", "assay": "Viability by Alamar Blue reduction under glucose/palmitate", "assay_type": "cell-based, rat", "settings": "24 hours", "method": "(§2) The effects of the substance on cell viability, cell growth and specific apoptotic events such as caspases activity and DNA-fragmentation was monitored. INS-1E cell apoptosis was induced by treatment of cell cultures with toxic concentrations of glucose and palmitate for 24 hours. The substance of interest was added to the medium 1 hour prior to the addition of the toxic agents.\nas §1, with “substances. […]” for “substances and the cells were further incubated for 24 h. For the last 4 hours BrdU was added to reach a concentration of 10 μM. Cell proliferation ELISA (Cell Proliferation ELISA, BrdU, chemiluminescence, Roche, cat. No. 1669915) was performed according to the manufacturers guidelines.”\nViability was assessed by mitochondric reduction of the non toxic dye Alamar Blue (Bioscource, cat. No. DAL1025). The dye was added to the cells 4 hours before read-out according to the manufacturers guidelines. Basal fluorescence was measured immediately to be subtracted from the fluorescence after 4 hours. […]"}, "INS-1E cells [3]": {"system": "INS-1E cells", "assay": "Cell number by CyQuant assay", "assay_type": "cell-based, rat", "settings": "24 hours", "method": "as §2\nas §1, with “substances. […]” for “substances and the cells were further incubated for 24 h. For the last 4 hours BrdU was added to reach a concentration of 10 μM. Cell proliferation ELISA (Cell Proliferation ELISA, BrdU, chemiluminescence, Roche, cat. No. 1669915) was performed according to the manufacturers guidelines.”\nCell number was measured by staining of cellular DNA with CyQuant dye (CyQuant Cell Proliferation Assay Kit, Molecular Probes, cat. No. C-7026) which becomes fluorescent when bound to DNA. […]"}, "INS-1E cells [4]": {"system": "INS-1E cells", "assay": "DNA-fragmentation ELISA in glucose/palmitate stressed cells", "assay_type": "cell-based, rat", "settings": "glucose/palmitate 24 hours; for reduction of cytosolic DNA-fragments: 20 μM", "method": "as §2\nDNA-fragmentation is a comparatively late apoptotic event comprising storage of nucleosomal DNA-fragments as mono- and oligo nucleosomes in the cytoplasm. The incubation of INS1-E cells with high concentrations of glucose and palmitate for 24 hours leads to DNA breakdown and the accumulation of nucleosomal DNA fragments in the cytoplasm. The detectable amount of cytosolic nucleosomal DNA fragments was reduced by about 17%, when cells were treated with the apoptosis inducing agents in combination with 10 μM 4-AKP.\nas §1, with “substances.” for “substances and the cells were further incubated for 24 h. For the last 4 hours BrdU was added to reach a concentration of 10 μM. Cell proliferation ELISA (Cell Proliferation ELISA, BrdU, chemiluminescence, Roche, cat. No. 1669915) was performed according to the manufacturers guidelines.”\n(§3) Apoptosis of Ins-1E cells was induced by addition of a combination of BSA coupled palmitate and glucose (pal/gluc) or a combination of cytokines (cyt) 1 hour after starting the treatment with test substances: pal/gluc: 0.3 mM palmitate:BSA (palmitic acid sodium salt:fatty acid free BSA 6:1) and 25 mM glucose. 10×cyt: 0.04 ng/ml IL-1β and 1 ng/ml IFNγ. The cells were further incubated with test substances and apoptotic inducer for 24 hours.\nDNA-fragmentation is a late apoptotic event comprising storage of nucleosomal DNA-fragments as mono- and oligo nucleosomes in the cytoplasm. Their concentration was determined by ELISA (Cell death detection ELISA, Roche, cat. No. 1774425) according to the manufacturers guidelines."}, "INS-1E cells [5]": {"system": "INS-1E cells", "assay": "Caspase activity assay in glucose/palmitate stressed cells", "assay_type": "cell-based, rat", "method": "as §2\nCaspase activation is a characteristic of early apoptotic cells. The experiment was carried out as described above with the exception that the caspases activity assay was applied instead of the DNA-fragmentation assay (see Example 3 for details).\nas §1, with “substances.” for “substances and the cells were further incubated for 24 h. For the last 4 hours BrdU was added to reach a concentration of 10 μM. Cell proliferation ELISA (Cell Proliferation ELISA, BrdU, chemiluminescence, Roche, cat. No. 1669915) was performed according to the manufacturers guidelines.”\nas §3\nCaspase activity is a characteristic of early apoptotic cells. Their activity was quantified by an enzymatic assay (homogeneous caspases assay, Roche, cat. No. 03 005 372 001). Caspase activity was measured 3 hours after addition of caspases substrate according to the manufacturers guidelines."}, "INS-1E cells [6]": {"system": "INS-1E cells", "assay": "Glucolipotoxicity induced apoptosis of INS-1E cells (overall assessment)", "assay_type": "cell-based, rat", "settings": "palmitate and glucose, 24 hours", "method": "as §2\nThe effects of the test compounds on beta cell function were assessed using biological assays monitoring cellular metabolic activity as well as specific apoptotic events in Ins-1E cells.\nas §1, with “substances.” for “substances and the cells were further incubated for 24 h. For the last 4 hours BrdU was added to reach a concentration of 10 μM. Cell proliferation ELISA (Cell Proliferation ELISA, BrdU, chemiluminescence, Roche, cat. No. 1669915) was performed according to the manufacturers guidelines.”\nas §3"}, "[7]": {"system": "cyclin-dependent kinases (CDKs)", "assay": "KinaseProfiler biochemical kinase activity assays", "method": "(§4) Experiments were carried out by Upstate Ltd. according to the protocols described in KinaseProfiler™ Assay Protocols Fall 2004 by Ustate Cell Signaling solutions.\n(§5) Compounds 10c and e are structurally very similar to 1-Azakenpaullone and differ only by one substituent at position 9 of the D ring from their template 1-Azakenpaullone. […] These kinases were selected among about 250 different kinases based on their structural or functional similarity to GSK3, e.g. all available members of the CDK family were included in the survey because CDKs are most similar to GSK3 and several kinase inhibitors are known that inhibit members of both families. The direct comparison of different compounds in such an experiment provides information on the relative selectivity of the respective compounds."}, "[8]": {"system": "panel of 28 protein kinases", "assay": "KinaseProfiler biochemical kinase activity assays", "settings": "tested in parallel with 1-Azakenpaullone", "method": "as §4, §5"}},
  "data": [
    {"smiles": "O=C1Cc2c([nH]c3ccc(Br)cc23)-c2ncccc2N1", "note": "[1-Azakenpaullone, reference compound]", "values": [
      {"measurement": "inhibition of human GSK3", "setting": "human GSK3", "result": "potent inhibitor"}
    ]},
    {"smiles": "O=C1Cc2c([nH]c3ccc(Br)cc23)-c2cccnc2N1", "note": "[4-Azakenpaullone, reference compound]", "values": [
      {"measurement": "BrdU incorporation relative to untreated controls (maximum)", "setting": "INS-1E cells [1]; 24 hours, maximum between 5 μM and 10 μM", "result": "about 1.4 fold"},
      {"measurement": "viability of Ins-1E cells subjected to apoptosis inducing concentrations of glucose and palmitate", "setting": "INS-1E cells [2]", "result": "slightly improves the viability"},
      {"measurement": "increase in cell-number relative to untreated controls", "setting": "INS-1E cells [3]", "result": 1.2, "unit": "fold"},
      {"measurement": "reduction of cytosolic nucleosomal DNA fragments", "setting": "INS-1E cells [4]; 10 μM", "result": "about 17%"},
      {"measurement": "reduction of caspase activity", "setting": "INS-1E cells [5]; 10 μM", "result": 18, "unit": "%"},
      {"measurement": "effect on glucolipotoxicity induced apoptosis", "setting": "INS-1E cells [6]", "result": "slightly antagonizes apoptotic processes"}
    ]},
    {"smiles": "COc1ccc2[nH]c3c(c2c1)CC(=O)Nc1cccnc1-3", "note": "[Compound 10a, 9-Methoxy-7,12-dihydro-pyrido[3′,2′:2,3]azepino[4,5-b]indole-6(5H)-one]", "values": [
      {"measurement": "proliferation of INS-1E cells (in words)", "setting": "INS-1E cells [1]", "result": "small effect"},
      {"measurement": "BrdU incorporation relative to untreated controls (maximum)", "setting": "INS-1E cells [1]; at about 10 μM", "result": "about 1.2 fold"},
      {"measurement": "reduction of cytosolic DNA-fragments", "setting": "INS-1E cells [4]", "result": 44, "unit": "%"},
      {"measurement": "reduction of caspase activity", "setting": "INS-1E cells [5]; 20 μM", "result": 22, "unit": "%"},
      {"measurement": "effect on glucolipotoxicity induced apoptosis", "setting": "INS-1E cells [6]", "result": "moderately prevents glucolipotoxicity induced apoptosis"}
    ]},
    {"smiles": "O=C1Cc2c([nH]c3ccc(O)cc23)-c2ncccc2N1", "note": "[Compound 10d, 9-Hydroxy-7,12-dihydropyrido[3′,2′:2,3]azepino[4,5-b]indole-6(5H)-one]", "values": [
      {"measurement": "reduction of cytosolic DNA-fragments", "setting": "INS-1E cells [4]", "result": 23, "unit": "%"},
      {"measurement": "reduction of caspase activity", "setting": "INS-1E cells [5]; 20 μM", "result": 27, "unit": "%"},
      {"measurement": "effect on glucolipotoxicity induced apoptosis", "setting": "INS-1E cells [6]", "result": "slightly effects glucolipotoxicity induced apoptosis"}
    ]},
    {"smiles": "O=C1Cc2c([nH]c3ccc(Cl)cc23)-c2ncccc2N1", "note": "[Compound 10e, 9-Chloro-7,12-dihydropyrido[3′,2′:2,3]azepino[4,5-b]indole-6(5H)-one]", "values": [
      {"measurement": "inhibition of cyclin-dependent kinases (CDKs)", "setting": "[7]", "result": "significantly inhibits"},
      {"measurement": "kinase selectivity / activity profile", "setting": "[8]", "result": "selective kinase inhibitors"},
      {"measurement": "BrdU incorporation relative to untreated controls (maximum)", "setting": "INS-1E cells [1]; maximum between 1 μM and 10 μM", "result": "about 1.7 fold"},
      {"measurement": "reduction of cytosolic DNA-fragments", "setting": "INS-1E cells [4]", "result": 23, "unit": "%"},
      {"measurement": "reduction of caspase activity", "setting": "INS-1E cells [5]; 20 μM", "result": 16, "unit": "%"},
      {"measurement": "effect on glucolipotoxicity induced apoptosis", "setting": "INS-1E cells [6]", "result": "slightly prevents glucolipotoxicity induced apoptosis"}
    ]},
    {"smiles": "O=C1Cc2c([nH]c3ccc(C(F)(F)F)cc23)-c2ncccc2N1", "note": "[Compound 10l, 9-Trifluoromethyl-7,12-dihydropyrido[3′,2′:2,3]azepino[4,5-b]indol-6(5H)-one]", "values": [
      {"measurement": "BrdU incorporation relative to untreated controls (maximum)", "setting": "INS-1E cells [1]; maximum between 1 μM and 5 μM", "result": "about 1.4 fold"},
      {"measurement": "effect on glucolipotoxicity induced apoptosis", "setting": "INS-1E cells [6]", "result": "significantly effects glucolipotoxicity induced apoptosis"}
    ]}
  ]
}
